Where only a bound is given, the exact number is not on record here.

For 18 compounds, Ratio and IC50 results are on record in ChEMBL document CHEMBL1136090, “Discovery of a potent and selective series of pyrazole bacterial methionyl-tRNA synthetase inhibitors” (Bioorg Med Chem Lett, 2003).

Assay [1] concerns Staphylococcus aureus subsp. aureus MW2. In words: Selectivity ratio for inhibition of human Methionyl-tRNA synthetase to that of Staphylococcus aureus Methionyl-tRNA synthetase.
In assay [2] the target is T1, Methionine--tRNA ligase, cytoplasmic (Homo sapiens, UniProt P56192).
T1 sequence (P56192 whole entry): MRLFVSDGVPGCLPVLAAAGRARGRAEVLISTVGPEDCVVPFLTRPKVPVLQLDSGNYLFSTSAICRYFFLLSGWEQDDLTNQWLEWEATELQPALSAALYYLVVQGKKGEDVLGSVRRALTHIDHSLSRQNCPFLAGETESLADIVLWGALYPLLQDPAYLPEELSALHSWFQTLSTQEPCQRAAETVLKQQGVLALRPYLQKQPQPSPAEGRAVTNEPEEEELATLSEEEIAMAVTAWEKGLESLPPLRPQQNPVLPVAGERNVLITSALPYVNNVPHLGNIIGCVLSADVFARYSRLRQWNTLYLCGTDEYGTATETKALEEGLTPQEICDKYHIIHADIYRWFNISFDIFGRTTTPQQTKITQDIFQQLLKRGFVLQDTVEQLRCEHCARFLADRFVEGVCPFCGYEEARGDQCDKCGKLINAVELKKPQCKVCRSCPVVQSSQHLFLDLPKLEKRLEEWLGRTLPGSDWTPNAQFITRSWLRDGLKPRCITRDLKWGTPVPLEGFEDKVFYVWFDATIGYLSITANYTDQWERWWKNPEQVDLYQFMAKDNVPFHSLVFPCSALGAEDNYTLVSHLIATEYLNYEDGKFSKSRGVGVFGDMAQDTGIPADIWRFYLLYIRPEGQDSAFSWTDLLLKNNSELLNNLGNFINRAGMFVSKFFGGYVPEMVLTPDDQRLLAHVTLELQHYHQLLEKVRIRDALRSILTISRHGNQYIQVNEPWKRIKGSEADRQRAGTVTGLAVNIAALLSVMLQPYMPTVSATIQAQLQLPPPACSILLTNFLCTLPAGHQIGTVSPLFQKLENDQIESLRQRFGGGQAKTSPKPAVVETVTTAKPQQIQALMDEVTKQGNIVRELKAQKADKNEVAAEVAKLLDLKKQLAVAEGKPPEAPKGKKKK
Briefly: Inhibitory activity against human methionyl-tRNA synthetase (hMetRS).

Regarding `O=C(O)c1cc(-c2ccc(-c3ccc(Cl)cc3Cl)cc2)n(-c2ccc(Cl)cc2Cl)n1`, in assay [1], the Ratio was 2. Half-maximal inhibition in assay [2] (IC50) was put at 11.9 µM.
For `O=C(O)c1cccc(-c2ccc(-c3cc(C(=O)O)nn3-c3ccc(Cl)cc3Cl)cc2)c1` the same measures were 1 and 40.9 µM.
Consider `O=C(O)c1cc(-c2ccc(-c3ccc(Cl)cc3Cl)cc2)n(CCO)n1`, for which the Ratio in assay [1] is greater than 22. This compound also registered an IC50 in assay [2] greater than 100 µM.
In the same order, the values of `COc1ccc(-n2nc(C(=O)O)cc2-c2ccc(-c3ccc(Cl)cc3Cl)cc2)cc1` are greater than 10 and greater than 100 µM.
For `O=C(O)c1cc(-c2ccc(-c3ccc(Cl)cc3Cl)cc2)nn1Cc1ccccn1` the same measures were 8 and 22.3 µM.
For `O=C(O)c1cc(-c2ccc(-c3ccc(F)cc3)cc2)n(-c2ccc(Cl)cc2Cl)n1` the same measures were 1 and 41.3 µM.
Turning to `O=C(O)c1cc(-c2ccc(-c3ccc(Cl)cc3Cl)cc2)n(-c2ccccn2)n1`, the Ratio in assay [1] is greater than 159. In assay [2], this compound showed an IC50 greater than 100 µM.
For `O=C(O)Cn1nc(C(=O)O)cc1-c1ccc(-c2ccc(Cl)cc2Cl)cc1` the same measures were 29 and 100 µM.
In the same order, the values of `Clc1ccc(-c2ccc(-c3cc(-c4nnn[nH]4)nn3-c3cccnc3)cc2)c(Cl)c1` are 82 and 10.6 µM.
For `NC(=O)c1cc(-c2ccc(-c3ccc(Cl)cc3Cl)cc2)n(-c2ccccn2)n1` the same measures were greater than 34 and greater than 100 µM.
Turning to `O=C(O)c1cc(-c2ccc(-c3ccccc3)cc2)n(-c2ccc(Cl)cc2Cl)n1`, the Ratio in assay [1] is 1. Further, it took 44.3 µM to reach half-maximal inhibition in assay [2] (IC50).
In the same order, the values of `O=C(NCc1nn[nH]n1)c1cc(-c2ccc(-c3ccc(Cl)cc3Cl)cc2)n(-c2cccnc2)n1` are 106 and 13.8 µM.
For `O=C(O)c1cc(-c2ccc(-c3ccc(Cl)cc3Cl)cc2)n(-c2cccnc2)n1` the same measures were 157 and 47 µM.
For the compound `O=C(O)c1cc(-c2ccc(-c3ccc(Cl)cc3Cl)cc2)n(Cc2cccnc2)n1`, in assay [1], the Ratio is greater than 152. Moreover, the concentration for half-maximal inhibition (IC50) in assay [2] is greater than 100 µM.
For `O=C(O)c1cc(-c2ccc(-c3ccc(C(F)(F)F)cc3)cc2)n(-c2ccc(Cl)cc2Cl)n1` the same measures were 1 and 33.5 µM.
For `O=C(O)c1cc(-c2ccc(-c3ccc(Cl)cc3Cl)cc2)n(Cc2ccncc2)n1` the same measures were 52 and 26.2 µM.
Take `CCn1nc(C(=O)O)cc1-c1ccc(-c2ccc(Cl)cc2Cl)cc1`: the Ratio in assay [1] came to 45. In addition, it took 46.4 µM to reach half-maximal inhibition in assay [2] (IC50).
As to `O=C(O)c1cc(-c2ccc(-c3ccc(F)c(Cl)c3)cc2)n(-c2ccc(Cl)cc2Cl)n1`, the Ratio in assay [1] was 1. Moreover, half-maximal inhibition in assay [2] (IC50) was put at 20.9 µM.
